# Measured values published in patent publication US5932709A (University of Michigan, priority 1997, dated 1999).
# Assays:
# [1] = Murine B16 melanoma model in vivo; parameters: species or system mouse (B6D2F1); conditions: mouse, in vivo, ip; i.p. daily×5
# In short: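 B6D2F1 mice inoculated i.p. on day 0 with B16 melanoma brei taken from s.c. tumors; MTD determined in non-tumored mice when dosing is unknown. Activity expressed as T/C% of mean survival, with 60-day survivors counted as cures.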
# [2] = system: P388 murine leukemia cells; assay: MTT growth inhibition, P388; type: cell-based; conditions: Mus musculus, 72 h, 3 days, read-out: Growth Inhibitory Activity IC50
# Method: Camptothecin was used as a control to test the anti-cancer efficacy of the novel camptothecin analogs of the present invention.
# Murine B16 melanoma cell line was grown in RPMI 1640 medium supplemented with 10% heat-inactivated fetal bovine serum, 2 mM L-glutamine, 50 units/mL penicillin, 50 μg/mL streptomycin, 25 μg/mL gentamicin, 0.75% sodium bicarbonate 10 mM HEPES buffer (pH 7.4), and 0.06 mg/mL AntiPPLO. Murine P388 leukemic cell line and human HT-29 colon adenocarcinoma line were maintained in RPMI 1640 medium supplemented with 10% heat-inactivated fetal bovine serum. […] MCF-7M human breast adenocarcinoma was maintained in IMEM supplemented with 5% non heat-inactivated fetal bovine serum and 1 nM insulin.
# [See "Rapid Colorimetric Assay For Cellular Growth And Survival: Application To Proliferation And Cytotoxicity Assays," J. Immun. Meth. 65:55 (1983)]. The assay utilizes a tetrazolium salt to quantitatively measure mammalian cell survival and proliferation by colorimetric methods. In particular, MTT, a pale yellow compound with minimal absorbance, is incubated with cancerous cells in addition to (or in the absence of) a particular camptothecin analog. Living cells with active mitochondrial enzymes metabolize the MTT into a dark blue/purple formazan product with high absorbance. The exact procedure used to test the camptothecin analogs of the present invention is described below.
# Exponentially growing cells (1-2×10^3 cells, unless specified otherwise) in 0.1 mL medium were seeded on day 0 in a 96-well microtiter plate. On day 1, 0.1 mL aliquots of medium containing graded concentrations of test analogs were added to the cell plates. After incubation at 37° C. in a humidified incubator for 3 days (P388, P388/CPT, B16) or 6 days (HT-29, MCF-7M), the plates were centrifuged briefly and 100 μL of the growth medium was removed. Cell cultures were incubated with 50 μL of 3-(4,5-dimethylthiazol-2-yl)-2,5-diphenyl-tetrazolium bromide [MTT, 1 mg/mL in Dulbecco's phosphate buffered saline (PBS)] for 4 hr at 37° C. The resulting purple formazan precipitate was solubilized with 200 μL of 0.04 N HCl in isopropyl alcohol. Absorbance was monitored in a BioRad Model 3550 Microplate Reader at a test wavelength of 570 nm and a reference wavelength of 630 nm. The absorbance is transferred to a PC 486 computer. The IC50 values were determined by a computer program (EZ-ED50) that fits all of the data to the following four-parameter logistic equation:
# Y=(Amax -Amin)/(1+[X/IC^50 ])^n +Amin
# where Amax is the absorbance of control cells, Amin is the absorbance of cells in the presence of highest agent concentration, IC^50 is the concentration of agent that inhibits the cell growth by 50% of control cells (based on the absorbance) and n is the slope of the curve.
# in vivo = conditions: mouse, in vivo, ip
# In short: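 Nude mice bore s.c. MX-1 tumour fragments and were pair-matched (10/group) at about 5 mm×5 mm, with dosing starting on day 1. Caliper-derived tumour weights gave % shrinkage against each tumour's day-1 weight, or growth inhibition where noted.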
SMILES,MTD [1] [mg/kg],IC50 [2] [µg/mL],MTD (in vivo) [mg/kg]
"CC[C@@]1(O)C(=O)OCc2c1cc1n(c2=O)Cc2c-1nc1ccccc1c2CO[C@@H]1C=C[C@H](OC(C)=O)[C@@H](COC(C)=O)O1 [HAR4, 7-[4,6-di-O-acetyl-2,3-dideoxy-α-D-erythro-hex-2-enopyranosyl]oxymethylcamptothecin]",20,0.03,10
"CC[C@@]1(O)C(=O)OCc2c1cc1n(c2=O)Cc2c-1nc1ccccc1c2CO[C@@H]1C=C[C@H](O[C@H]2O[C@H](CO)[C@@H](O)[C@H](O)[C@H]2O)[C@@H](CO)O1 [HAR6, 7-[4-O-(α-D-glucopyranosyl)-2,3-dideoxy-α-D-erythro-hex-2-enopyranosyl]-oxymethylcamptothecin]",100,1.68,100
"CC[C@@]1(O)C(=O)OCc2c1cc1n(c2=O)Cc2c-1nc1ccccc1c2CO[C@@H]1C=C[C@H](O[C@H]2O[C@H](COC(C)=O)[C@@H](OC(C)=O)[C@H](OC(C)=O)[C@H]2OC(C)=O)[C@@H](COC(C)=O)O1 [HAR5, 7-[6-O-acetyl-4-O-(2,3,4,6-tetra-O-acetyl-α-D-glucopyranosyl)-2,3-dideoxy-α-D-erythro-hex-2-enopyranosyl]oxymethylcamptothecin]",,0.362,
"CC[C@@]1(O)C(=O)OCc2c1cc1n(c2=O)Cc2c-1nc1ccccc1c2CO[C@@H]1C=C[C@H](O)[C@@H](CO)O1 [HAR7, 7-[2,3-dideoxy-α-D-erythro-hex-2-enopyranosyl]-oxymethylcamptothecin]",,0.088,
